From patent publication US20230043863A1, “HETEROAROMATIC DERIVATIVES FOR USE AS REGULATOR, PREPARATION METHOD THEREFOR AND USE THEREOF” (JIANGSU HANSOH PHARMACEUTICAL GROUP CO., LTD., priority 2018, published 2023)

What was measured:
[1] = target: JAK1 (Homo sapiens, UniProt P23458); experiment: JAK kinase activity inhibition, TR-FRET (JAK1); type: biochemical; conditions: TR-FRET kinase assay
Experimental: (§1) Experimental objective: The objective of this test is to test the inhibitory effect of the compound on JAK kinase activity.
(§2) Experimental method: the fluorescence resonance energy transfer (TR-FRET) method was used to test the inhibitory effect of the compound on JAK kinase activity, and the half inhibitory concentration IC50 of the compound on JAK kinase activity was obtained.
(§3) Kinase reaction was carried out in a white 384-well plate (PerkinElmer). 1-5 μL of different concentrations of the compound diluted with DMSO and ddH2O was added into each well, and 1-5 μL of the corresponding solvent was added to the positive control wells, followed by addition of 0.1-20 nM JAK kinase solution diluted with 1-5 μL of kinase buffer (HEPES 50-250 mM, MgCl2 5-20 mM, etc.) was added to each well. 1-5 μL of kinase buffer was added to the negative control well. 1-5 μL of substrate mixture containing peptide substrate and ATP was added. The plate was incubated at room temperature for 0.5-5 hours. […], EDTA and detection solution containing labeled antibody was added, and then the plate was incubated at room temperature for another 1-24 hours. The fluorescence signal value at about 620 nm and 665 nm of each well was measured by BioTek Synergy H1 plate reader, and the inhibition rate was calculated by the fluorescence signal value. According to the inhibition rate of different concentrations, the IC50 of the compound was obtained by curve fitting.
(§4) The percentage inhibition data of the wells treated with the compound was calculated with the positive control wells (DMSO control wells) and negative control wells (no kinase added) on the plate {% inhibition rate=100-[(test compound value-negative control value)]/(Positive control value-negative control value)×100}. IC50 value was calculated by using GraphPad prism to fit the data of different concentrations and corresponding percentage inhibition rates to a 4-parameter non-linear logic formula.

[2] = target: TYK2 (Homo sapiens, UniProt P29597); experiment: JAK kinase activity inhibition, TR-FRET (TYK2); type: biochemical; conditions: TR-FRET kinase assay
Experimental: as §1, §2, §3, §4

Sequence of JAK1 (P23458 whole entry): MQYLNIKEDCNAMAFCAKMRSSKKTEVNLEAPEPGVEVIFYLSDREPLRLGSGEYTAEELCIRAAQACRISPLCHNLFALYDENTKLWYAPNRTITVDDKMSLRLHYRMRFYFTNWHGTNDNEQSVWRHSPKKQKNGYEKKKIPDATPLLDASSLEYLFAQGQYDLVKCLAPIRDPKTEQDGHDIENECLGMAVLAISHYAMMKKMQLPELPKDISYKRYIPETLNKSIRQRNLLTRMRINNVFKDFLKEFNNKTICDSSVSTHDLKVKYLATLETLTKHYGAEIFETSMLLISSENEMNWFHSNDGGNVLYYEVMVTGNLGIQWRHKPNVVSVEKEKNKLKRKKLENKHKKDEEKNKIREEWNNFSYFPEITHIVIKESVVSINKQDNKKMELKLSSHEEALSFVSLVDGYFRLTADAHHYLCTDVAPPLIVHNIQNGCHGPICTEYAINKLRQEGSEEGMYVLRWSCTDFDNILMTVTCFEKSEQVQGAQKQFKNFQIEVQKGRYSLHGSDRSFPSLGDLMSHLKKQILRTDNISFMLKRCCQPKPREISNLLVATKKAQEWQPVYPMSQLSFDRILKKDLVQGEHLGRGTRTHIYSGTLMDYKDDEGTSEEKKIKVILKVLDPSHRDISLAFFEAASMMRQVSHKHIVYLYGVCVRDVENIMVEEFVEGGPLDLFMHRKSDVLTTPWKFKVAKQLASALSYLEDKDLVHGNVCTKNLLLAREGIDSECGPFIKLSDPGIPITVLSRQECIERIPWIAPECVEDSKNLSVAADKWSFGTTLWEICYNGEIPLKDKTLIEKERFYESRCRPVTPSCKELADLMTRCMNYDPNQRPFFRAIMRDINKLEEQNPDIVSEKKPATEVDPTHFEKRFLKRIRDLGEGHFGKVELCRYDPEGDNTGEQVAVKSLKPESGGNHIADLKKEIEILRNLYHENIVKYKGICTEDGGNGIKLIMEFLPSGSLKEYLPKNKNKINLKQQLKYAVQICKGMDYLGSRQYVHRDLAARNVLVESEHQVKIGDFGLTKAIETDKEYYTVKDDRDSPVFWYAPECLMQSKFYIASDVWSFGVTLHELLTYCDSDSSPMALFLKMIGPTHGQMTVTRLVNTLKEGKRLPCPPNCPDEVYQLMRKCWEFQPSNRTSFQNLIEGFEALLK
Sequence of TYK2 (P29597 whole entry): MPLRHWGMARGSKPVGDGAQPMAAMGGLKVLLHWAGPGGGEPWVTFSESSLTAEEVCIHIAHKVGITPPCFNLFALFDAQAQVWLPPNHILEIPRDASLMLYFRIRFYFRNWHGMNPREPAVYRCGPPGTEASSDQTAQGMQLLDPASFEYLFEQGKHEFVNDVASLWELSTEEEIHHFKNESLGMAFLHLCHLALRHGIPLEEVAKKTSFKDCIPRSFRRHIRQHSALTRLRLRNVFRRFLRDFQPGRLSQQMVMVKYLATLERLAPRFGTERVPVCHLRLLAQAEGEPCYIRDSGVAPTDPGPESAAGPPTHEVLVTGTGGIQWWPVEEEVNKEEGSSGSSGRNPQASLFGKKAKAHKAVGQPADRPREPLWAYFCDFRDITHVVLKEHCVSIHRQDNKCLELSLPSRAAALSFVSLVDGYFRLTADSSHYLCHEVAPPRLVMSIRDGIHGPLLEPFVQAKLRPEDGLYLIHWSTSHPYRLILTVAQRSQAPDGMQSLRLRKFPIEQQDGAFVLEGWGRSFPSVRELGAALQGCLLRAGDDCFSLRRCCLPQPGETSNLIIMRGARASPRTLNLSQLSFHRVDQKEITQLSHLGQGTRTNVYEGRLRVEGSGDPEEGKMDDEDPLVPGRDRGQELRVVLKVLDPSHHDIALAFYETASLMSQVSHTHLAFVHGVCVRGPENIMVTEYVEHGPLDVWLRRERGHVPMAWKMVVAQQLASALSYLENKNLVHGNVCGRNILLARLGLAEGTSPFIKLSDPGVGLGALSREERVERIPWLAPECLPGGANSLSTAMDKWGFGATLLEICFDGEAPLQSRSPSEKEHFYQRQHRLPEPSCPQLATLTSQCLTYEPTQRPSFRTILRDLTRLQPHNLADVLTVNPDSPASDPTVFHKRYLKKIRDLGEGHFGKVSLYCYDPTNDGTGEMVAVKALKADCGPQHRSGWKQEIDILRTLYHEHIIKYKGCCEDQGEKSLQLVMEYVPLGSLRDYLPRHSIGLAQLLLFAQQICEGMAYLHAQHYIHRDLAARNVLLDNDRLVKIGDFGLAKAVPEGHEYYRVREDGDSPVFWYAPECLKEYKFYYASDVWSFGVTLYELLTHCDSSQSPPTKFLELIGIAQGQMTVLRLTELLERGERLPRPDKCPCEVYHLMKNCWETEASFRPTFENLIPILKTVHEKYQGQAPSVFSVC

Row | IC50 [1] [nM] | IC50 [2] [nM] | Compound
1 | 1.63 | 4.57 | Cn1cnc(Nc2cc3ncccc3c(N[C@@H]3C[C@H]4CC[C@@H](C3)N4CCC#N)n2)c1 [Embodiment 25, 3-((3-exo)-3-((7-((1-methyl-1H-imidazol-4-yl)amino)-1,6-diazanaphthalen-5-yl)amino)-8-azabicyclo[3.2.1]oct-8-yl)propionitrile]
2 | 35.1 | > 100 | Cc1cc(Nc2nc(N[C@@H]3C[C@H]4CC[C@@H](C3)N4CCC#N)c3ccccc3n2)n[nH]1 [Embodiment 87, 3-((3-exo)-3-((2-((5-methyl-1H-pyrazol-3-yl)amino)quinazolin-4-yl)amino)-8-azabicyclo[3.2.1]oct-8-yl)propionitrile]
3 | 1.88 | 0.28 | Cc1cc(Nc2nc(N[C@@H]3C[C@H]4CC[C@@H](C3)N4C(=O)[C@@H]3CCCN3)nc3sccc23)n[nH]1 [Embodiment 249, ((3-exo)-3-((4-((5-methyl-1H-pyrazol-3-yl)amino)thieno[2,3-d]pyrimidin-2-yl)amino)-9-azabicyclo[3.3.1]non-9-yl) ((S)-pyrrolidin-2-yl)methanone]
4 | 4.18 | 2.36 | Cc1cc(Nc2nc(N[C@@H]3C[C@H]4CC[C@@H](C3)N4CCC#N)nc3c(C)cccc23)n[nH]1 [Embodiment 176, 3-((3-exo)-3-((8-methyl-4-((5-methyl-1H-pyrazol-3-yl)amino)quinazolin-2-yl)amino)-8-azabicyclo[3.2.1]oct-8-yl)propionitrile]
5 | 48.6 | > 100 | CC(C)(O)c1cnc(Nc2cc3ncccc3c(N[C@@H]3C[C@H]4CC[C@@H](C3)N4CCC#N)n2)s1 [Embodiment 31, 3-((3-exo)-3-((7-((5-(e2-hydroxypropan-2-yl)thiazol-2-yl)amino)-1,6-diazanaphthalen-5-yl)amino)-8-azabicyclo[3.2.1]oct-8-yl)propionitrile]
6 | 2.23 | 40.7 | N#CCCN1[C@@H]2CC[C@H]1C[C@H](Nc1nc(Nc3cc(CO)[nH]n3)cc3ncccc13)C2 [Embodiment 19, 3-((3-exo)-3-((7-((5-(hydroxymethyl)-1H-pyrazol-3-yl)amino)-1,6-diazanaphthalen-5-yl)amino)-8-azabicyclo[3.2.1]oct-8-yl)propionitrile]
7 | 11.7 | 6.15 | N#CCCN1[C@@H]2CC[C@H]1C[C@H](Nc1nc(Nc3ncc(C#N)s3)cc3ncccc13)C2 [Embodiment 160, 2-((5-(((3-exo)-8-(2-cyanoethyl)-8-azabicyclo[3.2.1]oct-3-yl)amino)-1,6-diazanaphthalen-7-yl)amino)thiazol-5-formonitrile]
8 | 1.89 | 0.34 | Cc1cc(Nc2nc(NC3CCN(S(=O)(=O)N4CC(C#N)C4)CC3)nc3sccc23)n[nH]1 [Embodiment 302, 1-((4-((4-((5-methyl-1H-pyrazol-3-yl)amino)thieno[2,3-d]pyrimidin-2-yl)amino)piperidin-1-yl)sulfonyl)azetindin-3-formonitrile]
9 | 8.81 | 4.77 | CN(c1nc(Nc2cc(CO)[nH]n2)c2ccc(Cl)cc2n1)[C@@H]1C[C@H]2CC[C@@H](C1)N2CCC#N [Embodiment 236, 3-((3-exo)-3-((7-chloro-4-((5-(hydroxymethyl)-1H-pyrazol-3-yl)amino)quinazolin-2-yl)(methyl)amino)-8-azabicyclo[3.2.1]oct-8-yl)propionitrile]
10 | 30.6 | > 100 | N#CCCN1[C@@H]2CC[C@H]1C[C@H](Nc1nc(Nc3cc(F)[nH]n3)cc3ncccc13)C2 [Embodiment 9, 3-((3-exo)-3-((7-((5-fluoro-1H-pyrazol-3-yl)amino)-1,6-diazanaphthalen-5-yl)amino)-8-azabicyclo[3.2.1]oct-8-yl)propionitrile]
11 | 7.5 | 1.44 | Cc1cc(Nc2nc(NC3CCN(S(=O)(=O)N4CC(C#N)C4)CC3)nc3ccccc23)n[nH]1 [Embodiment 311, 1-((4-((4-((5-methyl-1H-pyrazol-3-yl)amino)quinazolin-2-yl)amino)piperidin-1-yl)sulfonyl)azetindin-3-formonitrile]
12 | 0.29 | 0.6 | Cc1cc(Nc2nc(N[C@@H]3C[C@H]4CC[C@@H](C3)N4CCC#N)nc3cc(-c4cnn(C5CC5)c4)ccc23)n[nH]1 [Embodiment 185, 3-((3-exo)-3-((7-(1-cyclopropyl-1H-pyrazol-4-yl)-4-((5-methyl-1H-pyrazol-3-yl)amino)quinazolin-2-yl)amino)-8-azabicyclo[3.2.1]oct-8-yl)propionitrile]
13 | 4.92 | > 100 | O=C(CN1CCCCC1)N1[C@@H]2CC[C@H]1C[C@H](Nc1nc(Nc3ncc(CO)s3)cc3ncccc13)C2 [Embodiment 165, 1-((3-exo)-3-((7-((5-(hydroxymethyl)thiazol-2-yl)amino)-1,6-diazanaphthalen-5-yl)amino)-8-azabicyclo[3.2.1]oct-8-yl)-2-(piperidin-1-yl)ethane-1-one]
14 | 20.8 | 35 | N#CCCN1[C@@H]2CC[C@H]1C[C@H](Nc1nc(Nc3ncc(CCO)s3)cc3ncccc13)C2 [Embodiment 161, 3-((3-exo)-3-((7-((5-(2-hydroxylethyl)thiazol-2-yl)amino)-1,6-diazanaphthalen-5-yl)amino)-8-azabicyclo[3.2.1]oct-8-yl)propionitrile]
15 | 5.11 | 14.7 | Cc1cc(Nc2nc(N[C@@H]3C[C@@H]4CN(CCC#N)C[C@@H]4C3)nc3ccccc23)n[nH]1 [Embodiment 300, 3-(cis-5-((4-((5-methyl-1H-pyrazol-3-yl)amino)quinazolin-2-yl)amino)hexahydrocyclopentadieno[c]pyrrole-2(1H)-yl)propionitrile]
16 | 10.5 | 10.2 | Cc1cc(Nc2nc(N[C@@H]3C[C@H]4CC[C@@H](C3)N4S(=O)(=O)c3ccccn3)nc3sccc23)n[nH]1 [Embodiment 266, N4-(5-methyl-1H-pyrazol-3-yl)-N2-((3-exo)-8-(pyridin-2-ylsulfonyl)-8-azabicyclo[3.2.1]oct-3-yl)thieno[2,3-d]pyrimidin-2,4-diamine]
17 | 11.3 | 3.78 | Cc1cc(Nc2nc(N[C@@H]3C[C@H]4CC[C@@H](C3)N4C(=O)C(F)F)nc3ccccc23)n[nH]1 [Embodiment 231, 2,2-difluoro-1-((3-exo)-3-((4-((5-methyl-1H-pyrazol-3-yl)amino)quinazolin-2-yl)amino)-8-azabicyclo[3.2.1]oct-8-yl)ethane-1-one]
18 | 5.6 | 22.2 | N#CCCN1[C@@H]2CC[C@H]1C[C@H](Nc1nc(Nc3ncc(C(N)=O)s3)cc3ncccc13)C2 [Embodiment 35, 2-((5-(((3-exo)-8-(2-cyanoethyl)-8-azabicyclo[3.2.1]oct-3-yl)amino)-1,6-diazanaphthalen-7-yl)amino)thiazol-5-formamide]
19 | 7.23 | 21.6 | Cc1cc(Nc2nc(N[C@@H]3C[C@H]4CC[C@@H](C3)N4CCC#N)c3cccnc3n2)n[nH]1 [Embodiment 90, 3-((3-exo)-3-((2-((5-methyl-1H-pyrazol-3-yl)amino)pyrido[2,3-d]pyrimidin-4-yl)amino)-8-azabicyclo[3.2.1]oct-8-yl)propionitrile]
20 | 3.36 | 1.58 | Cc1cc(Nc2nc(N[C@@H]3C[C@H]4CC[C@@H](C3)N4CCC#N)nc3c(Cl)cccc23)n[nH]1 [Embodiment 177, 3-((3-exo)-3-((8-chloro-4-((5-methyl-1H-pyrazol-3-yl)amino)quinazolin-2-yl)amino)-8-azabicyclo[3.2.1]oct-8-yl)propionitrile]
21 | 2.63 | 9.99 | Cc1cc(Nc2nc(N[C@@H]3C[C@H]4CC[C@@H](C3)N4C(=O)c3ccncc3)nc3ccccc23)n[nH]1 [Embodiment 228, ((3-exo)-3-((4-((5-methyl-1H-pyrazol-3-yl)amino)quinazolin-2-yl)amino)-8-azabicyclo[3.2.1]oct-8-yl)(pyridin-4-yl)methanone]
22 | 3.55 | 2.09 | COCCS(=O)(=O)N1[C@@H]2CC[C@H]1C[C@H](Nc1nc(Nc3cc(C)[nH]n3)c3ccccc3n1)C2 [Embodiment 233, N2-((3-exo)-8-((2-methoxylethyl)sulfonyl)-8-azabicyclo[3.2.1]oct-3-yl)-N4-(5-methyl-1H-pyrazol-3-yl)quinazolin-2,4-diamine]
23 | 3.22 | 3.08 | Cc1cc(Nc2nc(N[C@@H]3C[C@H]4CCC[C@@H](C3)N4S(=O)(=O)c3nccn3C)nc3sccc23)n[nH]1 [Embodiment 269]
24 | 2.94 | 9.49 | Cc1cc(Nc2nc(N[C@@H]3C[C@H]4CC[C@@H](C3)N4CCC#N)c3cc[nH]c3n2)n[nH]1 [Embodiment 39, 3-((3-exo)-3-((2-((5-methyl-1H-pyrazol-3-yl)amino)-7H-pyrrolo[2,3-d]pyrimidin-4-yl)amino)-8-azabicyclo[3.2.1]oct-8-yl)propionitrile]
